Laboratory results taken from ChEMBL document CHEMBL1201862, “PubChem BioAssay data set” (2004).
Activity calls are given as the source filed them.

Key:
[1] = molecular target: Tyrosine-protein phosphatase non-receptor type 7 (Homo sapiens, UniProt P35236); type: functional
[2] = molecular target: Glyceraldehyde-3-phosphate dehydrogenase (Homo sapiens, UniProt P04406)
[3] = molecular target: T1, Dual specificity protein phosphatase 6 (Rattus norvegicus, UniProt Q64346)
T1 sequence (Q64346 whole entry): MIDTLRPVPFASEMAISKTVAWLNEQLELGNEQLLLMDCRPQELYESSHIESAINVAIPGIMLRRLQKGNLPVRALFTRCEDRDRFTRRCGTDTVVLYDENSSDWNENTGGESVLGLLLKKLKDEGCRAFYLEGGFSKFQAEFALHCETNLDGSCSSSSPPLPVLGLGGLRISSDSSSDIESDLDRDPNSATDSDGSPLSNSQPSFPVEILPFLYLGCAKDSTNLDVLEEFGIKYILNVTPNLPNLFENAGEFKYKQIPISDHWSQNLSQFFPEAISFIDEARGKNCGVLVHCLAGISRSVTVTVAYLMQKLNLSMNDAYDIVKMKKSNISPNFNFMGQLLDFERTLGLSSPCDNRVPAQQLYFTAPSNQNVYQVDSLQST

[4] = molecular target: T1, Dual specificity protein phosphatase 6; type: functional
Protein skinhead-1 = molecular target: T2, Protein skinhead-1 (Caenorhabditis elegans, UniProt P34707); type: functional
T2 sequence (P34707 whole entry): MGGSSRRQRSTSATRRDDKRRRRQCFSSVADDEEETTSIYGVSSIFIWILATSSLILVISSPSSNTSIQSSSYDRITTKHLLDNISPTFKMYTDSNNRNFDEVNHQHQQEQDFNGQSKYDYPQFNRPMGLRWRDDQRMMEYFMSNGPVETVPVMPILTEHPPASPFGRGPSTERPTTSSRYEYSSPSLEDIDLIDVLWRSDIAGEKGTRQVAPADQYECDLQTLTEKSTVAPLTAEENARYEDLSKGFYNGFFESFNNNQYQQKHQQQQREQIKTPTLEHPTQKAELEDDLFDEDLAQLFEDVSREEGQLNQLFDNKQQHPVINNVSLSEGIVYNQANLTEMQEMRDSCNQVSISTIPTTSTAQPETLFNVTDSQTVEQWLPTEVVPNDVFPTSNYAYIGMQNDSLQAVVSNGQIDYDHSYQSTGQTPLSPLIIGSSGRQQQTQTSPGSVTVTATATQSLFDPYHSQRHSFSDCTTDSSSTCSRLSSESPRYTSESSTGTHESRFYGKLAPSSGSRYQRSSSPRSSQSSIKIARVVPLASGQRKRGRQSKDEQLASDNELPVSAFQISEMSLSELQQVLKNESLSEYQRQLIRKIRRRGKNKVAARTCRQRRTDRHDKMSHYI

[5] = molecular target: Peroxisome proliferator-activated receptor gamma/Nuclear receptor coactivator 2 (Homo sapiens, UniProt P37231); type: functional;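 further: agonist potency for raising coactivator recruitment to the receptor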
Sequence of Peroxisome proliferator-activated receptor gamma/Nuclear receptor coactivator 2 (P37231 whole entry): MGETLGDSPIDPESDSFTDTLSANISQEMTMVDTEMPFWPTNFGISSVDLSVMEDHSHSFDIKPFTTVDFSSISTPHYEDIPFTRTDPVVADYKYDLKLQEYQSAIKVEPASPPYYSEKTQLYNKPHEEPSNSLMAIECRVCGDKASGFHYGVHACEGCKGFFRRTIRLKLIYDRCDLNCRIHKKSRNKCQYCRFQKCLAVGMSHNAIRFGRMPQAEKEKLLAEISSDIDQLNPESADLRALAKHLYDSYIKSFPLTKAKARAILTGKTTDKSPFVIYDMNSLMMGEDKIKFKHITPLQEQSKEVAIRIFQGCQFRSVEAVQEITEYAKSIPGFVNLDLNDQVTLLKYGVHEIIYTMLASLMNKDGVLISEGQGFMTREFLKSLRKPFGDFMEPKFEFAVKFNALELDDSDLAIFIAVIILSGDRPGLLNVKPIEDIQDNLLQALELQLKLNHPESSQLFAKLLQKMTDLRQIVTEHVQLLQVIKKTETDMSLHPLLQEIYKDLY
Sequence of Peroxisome proliferator-activated receptor gamma/Nuclear receptor coactivator 2 (Q15596 whole entry, further chain): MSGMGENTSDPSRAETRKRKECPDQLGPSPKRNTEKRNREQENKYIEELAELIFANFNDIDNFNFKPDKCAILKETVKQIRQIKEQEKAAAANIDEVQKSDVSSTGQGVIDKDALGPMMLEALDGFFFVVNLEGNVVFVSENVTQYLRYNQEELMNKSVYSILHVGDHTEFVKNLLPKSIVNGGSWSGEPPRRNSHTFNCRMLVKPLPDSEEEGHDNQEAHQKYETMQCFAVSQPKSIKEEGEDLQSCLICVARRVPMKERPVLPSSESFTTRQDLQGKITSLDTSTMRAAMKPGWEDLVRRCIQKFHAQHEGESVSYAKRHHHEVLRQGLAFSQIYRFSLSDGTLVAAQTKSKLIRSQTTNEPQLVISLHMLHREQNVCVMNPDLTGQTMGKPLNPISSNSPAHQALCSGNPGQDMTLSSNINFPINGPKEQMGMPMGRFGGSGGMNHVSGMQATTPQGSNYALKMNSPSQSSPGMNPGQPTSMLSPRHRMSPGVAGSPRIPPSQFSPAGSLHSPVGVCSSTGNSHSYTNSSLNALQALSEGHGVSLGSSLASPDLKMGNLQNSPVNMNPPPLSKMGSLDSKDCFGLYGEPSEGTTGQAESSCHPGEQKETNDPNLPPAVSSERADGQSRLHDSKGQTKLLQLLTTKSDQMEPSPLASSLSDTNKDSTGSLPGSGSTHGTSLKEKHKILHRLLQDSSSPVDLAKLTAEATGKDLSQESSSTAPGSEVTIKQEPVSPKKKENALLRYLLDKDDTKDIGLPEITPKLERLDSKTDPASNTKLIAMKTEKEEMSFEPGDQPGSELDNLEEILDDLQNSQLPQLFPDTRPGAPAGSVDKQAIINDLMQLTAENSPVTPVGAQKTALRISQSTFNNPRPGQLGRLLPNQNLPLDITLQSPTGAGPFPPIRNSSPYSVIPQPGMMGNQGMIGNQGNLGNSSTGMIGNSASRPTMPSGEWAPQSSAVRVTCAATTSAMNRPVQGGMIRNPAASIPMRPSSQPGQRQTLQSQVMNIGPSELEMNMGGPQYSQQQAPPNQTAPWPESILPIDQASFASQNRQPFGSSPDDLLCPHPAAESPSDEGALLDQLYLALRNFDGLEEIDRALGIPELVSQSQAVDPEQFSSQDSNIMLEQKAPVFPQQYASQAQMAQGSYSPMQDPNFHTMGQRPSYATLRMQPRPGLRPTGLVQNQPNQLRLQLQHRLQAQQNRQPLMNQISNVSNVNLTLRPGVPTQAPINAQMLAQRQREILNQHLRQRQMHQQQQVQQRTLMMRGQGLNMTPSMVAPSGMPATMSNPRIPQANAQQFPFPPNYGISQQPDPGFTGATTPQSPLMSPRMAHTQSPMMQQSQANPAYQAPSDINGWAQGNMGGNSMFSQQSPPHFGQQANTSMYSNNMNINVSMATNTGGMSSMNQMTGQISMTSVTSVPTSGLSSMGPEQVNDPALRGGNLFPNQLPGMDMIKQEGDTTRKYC

[6] = molecular target: Peroxisome proliferator-activated receptor gamma/Nuclear receptor coactivator 1 (Homo sapiens, UniProt P37231); type: functional;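 further: agonist potency as compounds enhance coactivator SRC-1 recruitment to PPARgamma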
Sequence of Peroxisome proliferator-activated receptor gamma/Nuclear receptor coactivator 1 (P37231 whole entry): as the sequence (P37231 whole entry) above
Sequence of Peroxisome proliferator-activated receptor gamma/Nuclear receptor coactivator 1 (Q15788 whole entry, further chain): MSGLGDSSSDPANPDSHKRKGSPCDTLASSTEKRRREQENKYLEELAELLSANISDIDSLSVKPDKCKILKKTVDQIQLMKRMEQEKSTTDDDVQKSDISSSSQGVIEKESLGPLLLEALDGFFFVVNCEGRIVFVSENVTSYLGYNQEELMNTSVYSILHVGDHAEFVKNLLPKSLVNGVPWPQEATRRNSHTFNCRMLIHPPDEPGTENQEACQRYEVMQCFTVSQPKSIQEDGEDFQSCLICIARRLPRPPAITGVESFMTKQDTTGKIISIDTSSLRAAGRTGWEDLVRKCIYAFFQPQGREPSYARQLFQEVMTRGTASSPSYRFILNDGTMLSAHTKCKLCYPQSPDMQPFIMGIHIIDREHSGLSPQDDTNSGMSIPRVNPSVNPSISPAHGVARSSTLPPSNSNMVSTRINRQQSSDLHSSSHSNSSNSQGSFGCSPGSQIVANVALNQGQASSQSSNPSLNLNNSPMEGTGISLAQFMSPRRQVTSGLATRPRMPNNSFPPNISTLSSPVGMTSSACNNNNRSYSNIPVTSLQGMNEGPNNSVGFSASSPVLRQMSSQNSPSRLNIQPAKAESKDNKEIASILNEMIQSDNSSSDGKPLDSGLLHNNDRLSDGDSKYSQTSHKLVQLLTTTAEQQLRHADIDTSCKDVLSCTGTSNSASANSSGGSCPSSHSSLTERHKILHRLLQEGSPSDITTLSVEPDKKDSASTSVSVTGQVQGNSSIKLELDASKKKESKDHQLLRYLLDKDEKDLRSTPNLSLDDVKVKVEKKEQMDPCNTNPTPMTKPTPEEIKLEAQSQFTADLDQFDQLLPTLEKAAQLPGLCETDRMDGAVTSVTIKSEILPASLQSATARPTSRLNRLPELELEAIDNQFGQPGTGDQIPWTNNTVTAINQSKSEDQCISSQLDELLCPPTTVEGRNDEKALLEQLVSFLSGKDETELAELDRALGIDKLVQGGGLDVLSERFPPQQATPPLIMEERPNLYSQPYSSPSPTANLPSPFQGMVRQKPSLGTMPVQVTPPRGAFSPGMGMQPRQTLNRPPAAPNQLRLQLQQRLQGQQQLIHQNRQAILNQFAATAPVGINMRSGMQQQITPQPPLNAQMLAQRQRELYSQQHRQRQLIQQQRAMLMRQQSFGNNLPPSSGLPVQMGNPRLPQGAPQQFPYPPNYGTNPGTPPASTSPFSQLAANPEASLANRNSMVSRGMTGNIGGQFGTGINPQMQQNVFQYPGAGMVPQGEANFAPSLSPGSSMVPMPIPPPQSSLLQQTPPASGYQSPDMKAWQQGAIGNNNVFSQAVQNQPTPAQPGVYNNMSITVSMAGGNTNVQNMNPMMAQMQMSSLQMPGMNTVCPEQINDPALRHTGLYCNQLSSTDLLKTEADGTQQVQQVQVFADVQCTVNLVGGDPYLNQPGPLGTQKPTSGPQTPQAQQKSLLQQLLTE

[7] = molecular target: Peroxisome proliferator-activated receptor gamma/Nuclear receptor coactivator 3 (Homo sapiens, UniProt P37231); type: functional;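 further: agonist potency for raising coactivator recruitment to the receptor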
Estrogen receptor = Estrogen receptor (Homo sapiens, UniProt P03372);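 further: potency for inhibiting coactivator peptide recruitment to the receptor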
Sequence of Estrogen receptor (P03372 whole entry): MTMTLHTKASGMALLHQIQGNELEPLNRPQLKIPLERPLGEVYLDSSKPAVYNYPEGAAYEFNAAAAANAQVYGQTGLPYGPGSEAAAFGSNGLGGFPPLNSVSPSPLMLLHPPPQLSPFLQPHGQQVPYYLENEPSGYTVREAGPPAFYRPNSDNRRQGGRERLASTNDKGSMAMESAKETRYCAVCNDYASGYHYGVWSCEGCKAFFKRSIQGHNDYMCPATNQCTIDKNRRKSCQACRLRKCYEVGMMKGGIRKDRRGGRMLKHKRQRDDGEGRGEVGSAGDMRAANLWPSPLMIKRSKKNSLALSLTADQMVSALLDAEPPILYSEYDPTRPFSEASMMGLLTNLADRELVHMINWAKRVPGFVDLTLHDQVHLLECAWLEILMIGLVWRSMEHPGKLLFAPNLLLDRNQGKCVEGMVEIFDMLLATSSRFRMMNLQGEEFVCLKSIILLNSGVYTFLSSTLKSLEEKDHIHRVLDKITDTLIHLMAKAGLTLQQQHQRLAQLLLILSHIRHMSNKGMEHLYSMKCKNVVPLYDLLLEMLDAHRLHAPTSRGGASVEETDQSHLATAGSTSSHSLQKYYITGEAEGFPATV

Leucine aminopeptidase = molecular target: T3, Leucine aminopeptidase (Plasmodium falciparum 3D7, UniProt Q8IL11); test: P. falciparum M17LAP inhibitors, primary screen, biochemical, fluorogenic H-Leu-NHMec substrate, 1536-well (AID 1619); type: functional
T3 sequence (Q8IL11 whole entry): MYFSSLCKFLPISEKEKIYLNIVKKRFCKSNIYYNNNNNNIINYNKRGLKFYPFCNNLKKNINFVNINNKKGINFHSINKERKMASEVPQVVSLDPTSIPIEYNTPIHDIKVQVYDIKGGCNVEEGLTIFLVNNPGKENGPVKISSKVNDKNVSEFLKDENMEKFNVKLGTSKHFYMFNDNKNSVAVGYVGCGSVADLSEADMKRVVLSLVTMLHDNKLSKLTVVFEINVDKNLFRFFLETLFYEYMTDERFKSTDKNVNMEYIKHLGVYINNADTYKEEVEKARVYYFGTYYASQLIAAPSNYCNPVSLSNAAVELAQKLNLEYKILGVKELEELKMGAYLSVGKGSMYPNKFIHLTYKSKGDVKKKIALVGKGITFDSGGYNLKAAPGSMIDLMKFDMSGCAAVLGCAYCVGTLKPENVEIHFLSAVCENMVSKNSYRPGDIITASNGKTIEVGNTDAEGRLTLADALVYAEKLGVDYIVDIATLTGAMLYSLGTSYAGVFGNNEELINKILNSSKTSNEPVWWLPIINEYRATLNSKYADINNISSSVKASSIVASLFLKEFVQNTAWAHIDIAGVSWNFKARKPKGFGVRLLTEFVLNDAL

Aspartyl aminopeptidase = molecular target: T4, Aspartyl aminopeptidase (Plasmodium falciparum 3D7, UniProt Q8I2J3); test: Counterscreen for inhibitors of M1 and M17 aminopeptidases: QFRET-based biochemical high throughput dose response assay for inhibitors of the Plasmodium falciparum M18 Aspartyl Aminopeptidase (PFM18AAP). [Related PubChem assays: 1619 (Screening assay (M17LAP inhibitors).), 1445 (Screening assay (M1AAP inhibitors).)]
T4 sequence (Q8I2J3 whole entry): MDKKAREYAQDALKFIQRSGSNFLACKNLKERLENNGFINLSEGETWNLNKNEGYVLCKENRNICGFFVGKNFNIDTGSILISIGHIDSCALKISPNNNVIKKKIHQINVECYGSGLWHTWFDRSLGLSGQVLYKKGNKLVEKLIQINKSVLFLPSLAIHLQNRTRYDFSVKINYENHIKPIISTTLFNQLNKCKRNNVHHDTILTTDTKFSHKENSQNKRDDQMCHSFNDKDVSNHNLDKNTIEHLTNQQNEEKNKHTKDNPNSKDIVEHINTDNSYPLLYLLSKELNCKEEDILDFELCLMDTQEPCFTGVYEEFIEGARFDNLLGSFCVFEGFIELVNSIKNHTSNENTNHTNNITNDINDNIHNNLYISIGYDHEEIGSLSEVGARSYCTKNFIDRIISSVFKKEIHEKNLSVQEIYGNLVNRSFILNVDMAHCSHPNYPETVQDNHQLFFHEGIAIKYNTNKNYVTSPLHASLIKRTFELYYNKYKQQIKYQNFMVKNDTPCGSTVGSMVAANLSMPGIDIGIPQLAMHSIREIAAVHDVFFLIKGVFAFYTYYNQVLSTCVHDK

Procathepsin L = Procathepsin L (Homo sapiens, UniProt P07711); test: cathepsin L inhibitors, dose response, counter-screen for M1/M17 aminopeptidase inhibitor project, biochemical, QFRET, 1536-well (AID 2214)
[8] = molecular target: T5, Replicative DNA helicase DnaB (Mycobacterium tuberculosis, UniProt P9WMR3); test: DnaB intein splicing inhibitors, dose response, biochemical, cell-free fluorescence (AID 449749); type: functional
T5 sequence (P9WMR3 whole entry): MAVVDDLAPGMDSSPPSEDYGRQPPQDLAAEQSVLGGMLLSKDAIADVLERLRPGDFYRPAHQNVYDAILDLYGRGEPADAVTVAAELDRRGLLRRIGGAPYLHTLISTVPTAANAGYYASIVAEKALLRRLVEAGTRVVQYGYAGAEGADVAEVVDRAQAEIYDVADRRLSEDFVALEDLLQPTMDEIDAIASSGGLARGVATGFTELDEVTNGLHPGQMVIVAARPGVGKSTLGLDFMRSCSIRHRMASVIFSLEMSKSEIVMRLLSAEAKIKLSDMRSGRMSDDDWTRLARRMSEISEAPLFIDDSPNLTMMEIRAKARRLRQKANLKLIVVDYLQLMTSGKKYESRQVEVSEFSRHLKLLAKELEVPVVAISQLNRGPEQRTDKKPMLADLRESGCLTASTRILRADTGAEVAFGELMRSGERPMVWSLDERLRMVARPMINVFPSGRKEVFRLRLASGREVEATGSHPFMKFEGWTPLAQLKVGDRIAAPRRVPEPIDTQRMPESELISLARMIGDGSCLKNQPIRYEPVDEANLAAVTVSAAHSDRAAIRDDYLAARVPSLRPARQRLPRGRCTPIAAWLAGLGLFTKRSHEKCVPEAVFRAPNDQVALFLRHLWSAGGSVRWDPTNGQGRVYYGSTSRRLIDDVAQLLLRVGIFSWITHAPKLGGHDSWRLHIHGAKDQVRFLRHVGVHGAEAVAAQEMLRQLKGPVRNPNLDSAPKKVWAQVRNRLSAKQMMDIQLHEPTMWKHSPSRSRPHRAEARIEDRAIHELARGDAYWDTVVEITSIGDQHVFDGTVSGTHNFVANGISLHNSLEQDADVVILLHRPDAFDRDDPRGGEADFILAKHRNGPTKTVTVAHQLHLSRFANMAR

Protein RecA = molecular target: T6, Protein RecA (Mycobacterium tuberculosis, UniProt P9WHJ3); test: Fluorescence Cell-Free Homogeneous Dose Retest to Identify Inhibitors of RecA-Intein Splicing Activity. [Related pubchem assays (depositor defined):AID2097, AID2223, AID489010, AID492950]; type: functional
T6 sequence (P9WHJ3 whole entry): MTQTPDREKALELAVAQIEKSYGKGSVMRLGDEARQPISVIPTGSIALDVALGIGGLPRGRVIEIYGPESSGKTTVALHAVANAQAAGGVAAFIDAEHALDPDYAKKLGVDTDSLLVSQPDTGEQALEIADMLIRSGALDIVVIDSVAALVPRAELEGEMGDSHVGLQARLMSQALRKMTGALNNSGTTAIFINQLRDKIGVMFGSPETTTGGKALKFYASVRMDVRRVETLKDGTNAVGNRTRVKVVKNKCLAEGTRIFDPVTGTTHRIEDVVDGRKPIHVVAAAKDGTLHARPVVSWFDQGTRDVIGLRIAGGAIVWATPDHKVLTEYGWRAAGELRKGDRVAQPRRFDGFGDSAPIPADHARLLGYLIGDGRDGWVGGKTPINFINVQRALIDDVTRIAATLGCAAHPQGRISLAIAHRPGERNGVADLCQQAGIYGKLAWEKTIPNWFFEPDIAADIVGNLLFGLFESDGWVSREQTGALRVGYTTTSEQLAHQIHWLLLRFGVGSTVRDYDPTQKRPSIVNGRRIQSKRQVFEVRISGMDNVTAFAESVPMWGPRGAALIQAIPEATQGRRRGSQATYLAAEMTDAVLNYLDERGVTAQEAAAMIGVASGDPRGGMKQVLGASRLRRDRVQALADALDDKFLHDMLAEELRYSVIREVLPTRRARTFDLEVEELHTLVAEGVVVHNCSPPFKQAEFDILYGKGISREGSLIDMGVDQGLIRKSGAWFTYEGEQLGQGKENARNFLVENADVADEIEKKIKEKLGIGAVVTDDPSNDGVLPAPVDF

[9] = molecular target: T7, Sentrin-specific protease 8 (Homo sapiens, UniProt Q96LD8); type: functional
T7 sequence (Q96LD8 whole entry): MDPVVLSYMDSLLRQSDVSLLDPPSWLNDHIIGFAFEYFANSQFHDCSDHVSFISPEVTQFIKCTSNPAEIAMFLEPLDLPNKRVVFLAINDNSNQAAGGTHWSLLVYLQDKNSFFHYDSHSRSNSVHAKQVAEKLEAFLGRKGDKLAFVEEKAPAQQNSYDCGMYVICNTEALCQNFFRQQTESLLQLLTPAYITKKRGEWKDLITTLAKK

[10] = molecular target: T7, Sentrin-specific protease 8; type: functional; remark: listed apart in the source
[11] = molecular target: DNA dC->dU-editing enzyme APOBEC-3A (Homo sapiens, UniProt P31941); test: APOBEC3A DNA deaminase inhibitors, dose response, biochemical (AID 504722); type: functional
Sequence of DNA dC->dU-editing enzyme APOBEC-3A (P31941 whole entry): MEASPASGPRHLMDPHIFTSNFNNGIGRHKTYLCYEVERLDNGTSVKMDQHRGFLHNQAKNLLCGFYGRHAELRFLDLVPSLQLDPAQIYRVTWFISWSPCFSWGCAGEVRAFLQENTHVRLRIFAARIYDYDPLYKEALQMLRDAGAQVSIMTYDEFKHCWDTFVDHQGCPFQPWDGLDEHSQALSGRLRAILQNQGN

[12] = molecular target: DNA dC->dU-editing enzyme APOBEC-3G (Homo sapiens, UniProt Q9HC16); test: Dose Response confirmation of small molecule APOBEC3G DNA Deaminase Inhibitors via a fluorescence-based single-stranded DNA deaminase assay. [Related pubchem assays (depositor defined):AID493012, AID493028]; type: functional

Sequence of Tyrosine-protein phosphatase non-receptor type 7 (P35236 whole entry): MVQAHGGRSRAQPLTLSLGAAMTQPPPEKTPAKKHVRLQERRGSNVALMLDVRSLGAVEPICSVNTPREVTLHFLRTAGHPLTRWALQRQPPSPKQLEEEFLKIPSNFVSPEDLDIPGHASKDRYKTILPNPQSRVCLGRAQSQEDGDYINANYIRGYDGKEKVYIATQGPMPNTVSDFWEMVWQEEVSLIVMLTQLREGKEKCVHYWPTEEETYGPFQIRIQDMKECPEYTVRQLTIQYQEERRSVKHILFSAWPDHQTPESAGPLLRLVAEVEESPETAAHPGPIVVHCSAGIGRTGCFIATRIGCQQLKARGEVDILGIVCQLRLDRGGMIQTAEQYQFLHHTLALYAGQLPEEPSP

In the case of `Cc1cc(NC(=O)CCc2ccc(C)o2)no1`, the IC50 [1] is reported as > 100 µM (not active), the IC50 [2] is reported as > 100 µM (not active) and the IC50 [3] is reported as > 100 µM (inactive). The IC50 [4] was > 100 µM (inactive) and the IC50 (Protein skinhead-1) was > 100 µM (inactive).

In the case of `CCOC(=O)C1=C(C)N=C(SCC(=O)O)NC1c1ccccc1` (stereo unspecified), the EC50 [5] is reported as > 79.4 µM (not active), the EC50 [6] is reported as > 79.4 µM (not active) and the EC50 [7] is reported as > 79.4 µM (not active).

`O=C(Nc1cnc2ccccc2c1)c1ccco1` was tested, and the IC50 (Estrogen receptor) was > 50 µM (not active).

In the case of `O=c1cc(-c2ccc(Cl)cc2)[nH][nH]1`, the IC50 (Leucine aminopeptidase) is reported as < 1 µM (active), the IC50 (Aspartyl aminopeptidase) is reported as > 73.5 µM (not active) and the IC50 (Procathepsin L) is reported as > 59.6 µM (not active). For the same molecule, the AC50 [8] was 2.33 µM (active), the EC50 (Protein RecA) was 527 nM (active) and the IC50 [9] was 57 µM (active). The IC50 [10] was 67.7 µM (inactive).

In the case of `COc1ccc(-c2cc(C(F)(F)F)n3ncc(C(=O)NCc4ccco4)c3n2)cc1`, the IC50 (Estrogen receptor) is reported as > 50 µM (not active).

With `O=C(O)[C@H](O)c1ccccc1` the IC50 [1] was > 100 µM (not active), the IC50 [2] was > 100 µM (not active) and the IC50 [3] was > 100 µM (inactive). The IC50 [4] was > 100 µM (inactive).

With `Sc1nc2cc(Cl)ccc2[nH]1` the EC50 [5] was > 79.4 µM (not active), the EC50 [6] was > 79.4 µM (not active) and the EC50 [7] was > 79.4 µM (not active). For the same molecule, the IC50 [11] was > 100 µM (inactive) and the IC50 [12] was 5.27 µM (active).
